Experiment: Antiinflammatory activity in rat polymorphonuclear leukocytes assessed as inhibition of platelet activating factor-induced release of beta-glucuronidase at 10 uM after 15 mins
Type: functional
Conditions: 0.25 h

Row | SMILES | inhibition at 10 µM [%]
1 | COc1cc(C(=O)OC[C@H]2O[C@@H](OC(=O)c3cc(OC)c(O)c(OC)c3)[C@H](O)[C@@H](O)[C@@H]2O)ccc1O[C@@H]1O[C@H](COC(=O)c2cc(OC)c(O)c(OC)c2)[C@@H](O)[C@H](O)[C@H]1O | 6
2 | COC(=O)C1=CO[C@@H](O[C@@H]2O[C@H](CO[C@@H]3O[C@@H](C)[C@H](O)[C@@H](O)[C@H]3O)[C@@H](O)[C@H](O)[C@H]2O)[C@@H]2C(CO)=CC[C@H]12 | 44.8
3 | COc1cc(O)ccc1O[C@@H]1O[C@H](COC(=O)c2ccc(O[C@@H]3O[C@H](COC(=O)c4cc(OC)c(O)c(OC)c4)[C@@H](O)[C@H](O)[C@H]3O)c(OC)c2)[C@@H](O)[C@H](O)[C@H]1O | 43.6
4 | COc1cc(C(=O)O)ccc1O[C@@H]1O[C@H](COC(=O)c2ccc(O[C@@H]3O[C@H](COC(=O)c4cc(OC)c(O)c(OC)c4)[C@@H](O)[C@H](O)[C@H]3O)c(OC)c2)[C@@H](O)[C@H](O)[C@H]1O | 60.2
5 | COc1cc(O[C@@H]2O[C@H](COC(=O)c3ccc(O[C@@H]4O[C@H](COC(=O)c5cc(OC)c(O)c(OC)c5)[C@@H](O)[C@H](O)[C@H]4O)c(OC)c3)[C@@H](O)[C@H](O)[C@H]2O)ccc1O | 25.2
6 | C[C@@H]1C(=O)O[C@H]2[C@H](O)[C@@]34[C@H]5C[C@@H](C(C)(C)C)[C@]36[C@@H](OC(=O)[C@@H]6O)O[C@@]4(C(=O)O5)[C@@]12O [GINKOLIDE B] | 78.8

From ChEMBL document CHEMBL1149854, “Glycosides from the bark of Adina polycephala” (2008)
